Entries after “also recorded” stand apart in the source; their conditions may differ.
How the values were obtained:
[1] = target: T1, hTRPM5 (Homo sapiens, UniProt Q9NZQ8); assay: hTRPM5 membrane potential dye FLIPR assay in HEK-293 cells (transient or stable clone); format: cell-based; conditions: for dependence of agonist-induced change in membrane potential on extracellular Na+: NaCl versus NMDG replacement; for change in membrane potential in hTRPM5-expressing HEK293 cells: agonist of an expressed receptor (endogenous muscarinic, transfected H1 or AT1) or Ca2+ ionophore, dye R-8034; for change in membrane potential in hTRPM5-expressing cells not transfected with the agonist's receptor: unrelated agonist control
T1 construct: expressed in transfected cells
T1 sequence (Q9NZQ8 1-1165): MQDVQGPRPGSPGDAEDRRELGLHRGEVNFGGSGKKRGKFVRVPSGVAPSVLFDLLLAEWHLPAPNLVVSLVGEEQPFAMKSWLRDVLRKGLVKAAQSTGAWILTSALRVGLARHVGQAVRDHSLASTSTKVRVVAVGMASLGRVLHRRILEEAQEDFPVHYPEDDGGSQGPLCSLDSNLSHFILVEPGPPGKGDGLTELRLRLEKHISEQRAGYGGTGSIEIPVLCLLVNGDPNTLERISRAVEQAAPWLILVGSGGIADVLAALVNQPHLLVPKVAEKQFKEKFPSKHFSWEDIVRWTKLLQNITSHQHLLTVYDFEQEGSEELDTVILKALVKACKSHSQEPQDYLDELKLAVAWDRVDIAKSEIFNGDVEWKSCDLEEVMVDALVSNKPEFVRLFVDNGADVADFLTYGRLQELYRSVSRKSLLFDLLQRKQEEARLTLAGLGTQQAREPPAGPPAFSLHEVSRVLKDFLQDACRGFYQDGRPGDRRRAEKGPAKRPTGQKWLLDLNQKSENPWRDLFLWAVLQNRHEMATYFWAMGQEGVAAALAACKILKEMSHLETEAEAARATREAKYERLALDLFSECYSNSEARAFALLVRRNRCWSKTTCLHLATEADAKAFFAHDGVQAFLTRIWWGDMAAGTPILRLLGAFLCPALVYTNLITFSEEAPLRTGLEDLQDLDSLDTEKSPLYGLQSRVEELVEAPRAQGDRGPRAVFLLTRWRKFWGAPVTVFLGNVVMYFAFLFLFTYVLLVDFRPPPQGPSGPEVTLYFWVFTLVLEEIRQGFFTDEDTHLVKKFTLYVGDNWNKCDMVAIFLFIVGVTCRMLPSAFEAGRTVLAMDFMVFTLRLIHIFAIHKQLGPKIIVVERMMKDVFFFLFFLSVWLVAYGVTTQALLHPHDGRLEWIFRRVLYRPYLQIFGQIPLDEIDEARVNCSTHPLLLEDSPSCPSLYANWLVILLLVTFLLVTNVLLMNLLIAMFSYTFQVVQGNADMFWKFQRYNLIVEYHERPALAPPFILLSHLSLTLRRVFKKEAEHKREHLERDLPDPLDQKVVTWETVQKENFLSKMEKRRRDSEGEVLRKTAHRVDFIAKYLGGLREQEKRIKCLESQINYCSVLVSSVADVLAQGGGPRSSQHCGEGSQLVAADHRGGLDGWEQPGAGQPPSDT
Experimental: (§1) HEK-293 cells (about 50-70% confluency) contained in 10 cm dishes are transfected with 5 μg of TRPM5 DNA and pcDNA3 and 2 μg of RFP plasmids using TransH293.
(§2) After 24 hours, the cells are split into 384-well plates at ˜50,000 cells/well.
(§3) At 48 hours post-transfection the cells are loaded with membrane potential dyes in HBSS for 60 minutes at room temperature.
Compounds plates are prepared in HBSS.
HEK-293 cells transfected with TRPM5 nucleic acid sequence containing plasmid that comprises neo marker and stable cell clones are selected using neomycin.
Screened clones are screened using membrane potential dyes and FLIPR, for a GPCR-induced change in membrane potential.
This experiment is contained in FIG. 10. In the experiment HEK293 cells were transfected with a plasmid encoding hTRPM5 in pcDNA3.Neo. 48 hours later cells were put in selection media (500 ug/ml neomycin) and stable clones were selected and expanded. Clone #51 was further characterized for carbachol-induced hTRPM5 activation. Cells were loaded with a membrane potential dye (R-8034; Molecular Devices Corporation). […]

[2] = test system: HEK293 cells lacking hTRPM5; assay: Membrane potential dye assay in HEK293 cells lacking hTRPM5 (control plasmid pUC); format: cell-based, human; conditions: agonist stimulation
Experimental: (§4) As shown in the Left Panel: HEK293 cells were transfected with a plasmid encoding hTRPM5. 48 hours later cells were loaded with either a membrane potential dye (Molecular Devices Corporation; R-8034 or DisBAC) or a Ca^2+-sensitive dye (Fluo3). […] As shown in the Right Panel: HEK293 cells were transfected with a control plasmid (pUC) and treated as described above.
This experiment the results of which are shown in FIG. 5 evaluated TRPM5 induced changes in membrane potential. As shown in the left panel HEK293 cells were transfected with plasmids encoding the H1 histamine receptor with (red trace) or without (blue trace) a plasmid encoding hTRPM5. 48 hours later cells were loaded with a membrane potential dye (R-8034; Molecular Devices Corporation).
(§5) In this experiment the results of which are contained in FIG. 11 a library of ˜15,000 compounds (10 uM) was screened for hTRPM5 modulators using clone #51 (described in FIG. 10). In our initial screening conditions hTRPM5 was maximally stimulated with carbachol, using concentrations of 50 uM to 100 uM.

[3] = target: T2, mouse TRPM5 (Mus musculus, UniProt Q9JJH7); assay: Mouse TRPM5 membrane potential dye assay in transfected HEK293 cells; format: cell-based; conditions: for change in membrane potential in mouse TRPM5-expressing HEK293 cells: agonist of an expressed receptor or Ca2+ ionophore, dye R-8034; for change in membrane potential in mouse TRPM5 cells not transfected with the agonist's receptor: unrelated agonist control
T2 construct: expressed in transfected cells; host or cells: HEK293, in some experiments co-transfected with the AT1 or H1 receptor or stably expressing mT2R5 and Galpha15
T2 sequence (Q9JJH7 1-1158): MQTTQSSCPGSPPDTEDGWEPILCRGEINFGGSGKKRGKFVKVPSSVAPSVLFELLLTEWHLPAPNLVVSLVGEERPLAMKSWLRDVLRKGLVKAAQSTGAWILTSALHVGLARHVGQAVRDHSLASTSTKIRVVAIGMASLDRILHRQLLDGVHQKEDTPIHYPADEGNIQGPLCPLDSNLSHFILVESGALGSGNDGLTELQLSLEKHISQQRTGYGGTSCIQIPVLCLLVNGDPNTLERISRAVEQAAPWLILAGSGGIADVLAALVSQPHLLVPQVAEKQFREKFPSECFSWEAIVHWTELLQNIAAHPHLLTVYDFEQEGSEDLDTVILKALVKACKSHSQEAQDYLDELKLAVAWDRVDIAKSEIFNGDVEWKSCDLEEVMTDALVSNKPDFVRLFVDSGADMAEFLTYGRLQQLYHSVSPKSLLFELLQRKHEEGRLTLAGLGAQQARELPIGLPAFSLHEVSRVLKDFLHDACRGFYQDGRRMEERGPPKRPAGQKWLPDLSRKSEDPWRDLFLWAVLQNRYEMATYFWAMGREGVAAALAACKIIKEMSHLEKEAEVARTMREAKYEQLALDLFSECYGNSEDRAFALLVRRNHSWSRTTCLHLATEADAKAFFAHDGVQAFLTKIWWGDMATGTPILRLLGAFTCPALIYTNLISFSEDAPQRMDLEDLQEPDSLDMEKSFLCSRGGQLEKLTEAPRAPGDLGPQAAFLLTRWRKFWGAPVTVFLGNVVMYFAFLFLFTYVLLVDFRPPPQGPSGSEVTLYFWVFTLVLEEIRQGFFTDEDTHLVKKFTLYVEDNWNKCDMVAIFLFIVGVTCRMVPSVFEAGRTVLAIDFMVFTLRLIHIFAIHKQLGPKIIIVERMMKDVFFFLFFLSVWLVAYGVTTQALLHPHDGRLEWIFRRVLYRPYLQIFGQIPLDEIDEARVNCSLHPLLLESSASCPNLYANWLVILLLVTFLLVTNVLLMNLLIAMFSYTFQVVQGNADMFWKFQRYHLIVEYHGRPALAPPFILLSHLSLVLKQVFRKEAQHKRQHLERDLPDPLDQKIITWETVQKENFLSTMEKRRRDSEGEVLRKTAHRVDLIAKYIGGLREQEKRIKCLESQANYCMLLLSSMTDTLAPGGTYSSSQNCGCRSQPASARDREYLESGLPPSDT
Experimental: as §1, §2, §3
This experiment contained in FIG. 8 compares mTRPM5 responses to the calcium ionophore ionomycin and various GPCR agonists. As shown in the left top panel HEK293 cells were transfected with a plasmid encoding mouse TRPM5 (red trace) or a control plasmid (pUC; blue trace). 48 hours later cells were loaded with a membrane potential dye (R-8034; Molecular Devices Corporation).
This experiment contained in FIG. 9 compares hTRPM5 and mTRPM5 responses to GPCR agonist compounds. As shown in the left panel HEK293 cells stably expressing the cycloheximide bitter receptor mT2R5 and the promiscuous G protein G[…]15 were transfected with a plasmid encoding for mouse TRPM05 or a control plasmid (pUC). 48 hours later cells were loaded with a membrane potential dye (R-8034; Molecular Devices Corporation).

[4] = test system: Ca^2+ mobilization; assay: Ca2+ mobilization with Ca2+-sensitive dye (Fluo3) in HEK293 cells; format: cell-based, human
Experimental: as §4
This experiment the results of which are contained in FIG. 7 compared TRPM5 responses to the Ca++ ionophore ionomycin. As shown in the left panel HEK293 cells were transfected with a plasmid encoding hTRPM5. 48 hours later cells were loaded with either a membrane potential dye (R-8034; Molecular Devices Corporation) or a Ca^2+-sensitive dye (Fluo3).
as §5

Row | dependence of agonist-induced change in membrane potential on extracellular Na+ [1] | hTRPM5 activity produced ([1]; 2 um carbachol) | Compound | change in membrane potential in hTRPM5-expressing HEK293 cells [1] | change in membrane potential in hTRPM5-expressing cells not transfected with the agonist's receptor [1] | change in membrane potential in cells lacking hTRPM5 [2] | change in membrane potential in mouse TRPM5-expressing HEK293 cells [3] | change in membrane potential in mouse TRPM5 cells not transfected with the agonist's receptor [3] | Ca^2+ response in hTRPM5-transfected HEK293 cells [4] | Ca^2+ response in control plasmid (pUC) transfected HEK293 cells [4] | change in membrane potential in mT2R05 / G15 stable HEK293 cells transfected with human TRPM5 ([1]; versus pUC control) | change in membrane potential in mT2R5 / G15 stable HEK293 cells transfected with mouse TRPM5 ([3]; versus pUC control)
1 |  |  | C[C@H](CCC(=O)O)C[C@H](C)C[C@H](C)C(=O)/C=C(\O)[C@H](C)C[C@H](C)C/C=C/[C@@H](C)[C@@H](O)[C@@H](C)[C@@H](O)C[C@@H]1CC[C@@](C)([C@H]2CC[C@@](C)([C@@H](C)O)O2)O1 [ionomycin] | concomitant increase in membrane potential; also recorded: dose-dependent increase in membrane potential that is noticeably greater in hTRPM5-expressing cells; also recorded: TRPM5-dependent changes in membrane potential |  |  | dose-dependent increase in membrane potential that is significantly greater in mouse-TRPM5 transfected cells; also recorded: TRPM5-dependent changes in membrane potential |  | leads to Ca^2+ influx |  |  | 
2 | only observed in the presence of NaCl |  | NCCc1c[nH]cn1 [histamine] | dose-dependent increase in membrane potential | has no effect | no significant change in membrane potential | dose-dependent increase in membrane potential | did not have any effect |  |  |  | 
3 | only observed in the presence of NaCl | 10-25% | C[N+](C)(C)CCOC(N)=O [carbachol] | concomitant increase in membrane potential; also recorded: dose-dependent increase in membrane potential; also recorded: dose-dependent increase in membrane potential that is much greater than what is seen in cells not expressing hTRPM5 |  | no change in membrane potential is observed; also recorded: no significant change in membrane potential | dose-dependent increase in membrane potential |  | leads to Ca^2+ mobilization | a significant increase in Ca^2+ is triggered |  | 
4 |  |  | C[C@@H]1C[C@@H]([C@H](O)CC2CC(=O)NC(=O)C2)C(=O)[C@@H](C)C1 [cycloheximide] |  |  |  |  |  |  |  | dose-dependent increase in membrane potential that is much greater than what is seen in cells not expressing human TRPM5 | dose-dependent increase in membrane potential that was much greater than what is seen in cells not expressing mouse TRPM5
5 |  |  | CNc1ccc2oc(C[C@H]3O[C@@]4(CC[C@H]3C)O[C@H]([C@H](C)C(=O)c3ccc[nH]3)[C@H](C)C[C@H]4C)nc2c1C(=O)O [A-23187] | TRPM5-dependent changes in membrane potential |  |  | TRPM5-dependent changes in membrane potential |  |  |  |  | 

Row | Compound | dependence of agonist-induced change in membrane potential on extracellular Na+ [1] | hTRPM5 activity produced ([1]; 2 um carbachol) | change in membrane potential in hTRPM5-expressing HEK293 cells [1] | change in membrane potential in hTRPM5-expressing cells not transfected with the agonist's receptor [1] | change in membrane potential in cells lacking hTRPM5 [2] | change in membrane potential in mouse TRPM5-expressing HEK293 cells [3] | change in membrane potential in mouse TRPM5 cells not transfected with the agonist's receptor [3] | Ca^2+ response in hTRPM5-transfected HEK293 cells [4] | Ca^2+ response in control plasmid (pUC) transfected HEK293 cells [4] | change in membrane potential in mT2R05 / G15 stable HEK293 cells transfected with human TRPM5 ([1]; versus pUC control) | change in membrane potential in mT2R5 / G15 stable HEK293 cells transfected with mouse TRPM5 ([3]; versus pUC control)
6 | angiotensin II (DRVYIHPF) [AT1 angiotensin II receptor agonist] | only observed in the presence of NaCl |  | dose-dependent increase in membrane potential | did not have any effect | no significant change in membrane potential | dose-dependent increase in membrane potential | had no effect |  |  |  | 

Source: patent publication US20070161052A1, “TRPM5 based assays and the use thereof for the identification of modulators of sweet, bitter or umami (savory) taste” (SENOMYX, INC., priority 2005, published 2007)
